From patent US9487462B2, “Inhibitors of matrix metalloproteinases” (PharmaHungary 2000 Kft., priority 2010, dated 2016)
Where two headings read alike, the source gives them in different places.

Columns and labels:
[1] = biological target: T1, MMP1 (Homo sapiens (Human), UniProt P03956); experiment: MMP activity assay (fluorogenic substrate), MMP1; type: biochemical
Target sequence in this assay (P03956 100-469, species assumed): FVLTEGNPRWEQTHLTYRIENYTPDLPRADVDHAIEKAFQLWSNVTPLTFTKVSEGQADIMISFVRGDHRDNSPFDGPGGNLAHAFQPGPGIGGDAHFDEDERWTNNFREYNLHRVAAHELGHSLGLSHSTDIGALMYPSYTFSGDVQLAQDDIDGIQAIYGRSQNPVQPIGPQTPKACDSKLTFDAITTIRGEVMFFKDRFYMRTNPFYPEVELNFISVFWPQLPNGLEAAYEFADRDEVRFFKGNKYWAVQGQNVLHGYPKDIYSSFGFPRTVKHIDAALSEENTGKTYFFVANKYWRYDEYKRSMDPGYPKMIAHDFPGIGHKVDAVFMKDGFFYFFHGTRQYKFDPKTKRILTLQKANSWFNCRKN

[2] = biological target: MMP2 (Homo sapiens, UniProt P08253); experiment: MMP activity assay (fluorogenic substrate), MMP2 catalytic domain; type: biochemical
[3] = biological target: MMP-9 (Rattus norvegicus (Rat), UniProt P50282); experiment: In vitro zymography assay (gelatin), MMP-9; type: biochemical; conditions: % ± SD
MMP-9, sequence (P50282 108-708): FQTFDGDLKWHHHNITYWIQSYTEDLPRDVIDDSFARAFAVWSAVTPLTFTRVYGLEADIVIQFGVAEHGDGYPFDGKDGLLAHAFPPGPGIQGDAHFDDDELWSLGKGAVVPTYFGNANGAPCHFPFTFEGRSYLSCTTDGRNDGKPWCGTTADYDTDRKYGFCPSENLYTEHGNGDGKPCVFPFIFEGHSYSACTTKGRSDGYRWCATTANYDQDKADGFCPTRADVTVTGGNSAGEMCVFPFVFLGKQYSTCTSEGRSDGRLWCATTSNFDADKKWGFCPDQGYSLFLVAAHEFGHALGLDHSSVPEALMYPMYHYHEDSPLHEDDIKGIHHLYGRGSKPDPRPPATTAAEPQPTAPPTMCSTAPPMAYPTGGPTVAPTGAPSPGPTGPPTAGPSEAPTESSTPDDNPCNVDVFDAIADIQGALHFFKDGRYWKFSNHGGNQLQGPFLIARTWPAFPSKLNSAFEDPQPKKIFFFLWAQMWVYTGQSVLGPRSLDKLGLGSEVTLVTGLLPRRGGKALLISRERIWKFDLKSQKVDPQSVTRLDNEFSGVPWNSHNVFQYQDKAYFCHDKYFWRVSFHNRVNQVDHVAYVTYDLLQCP
Protocol: (§1) MMP-2 and MMP-9 enzymes were isolated from rat hearts and from rat spleen while human, recombinant MMP-1 and MMP-13 enzymes used were commercial. MMP-2, -9, -13 enzymes were separated by electrophoresis during non-reducing conditions on 8% SDS-polyacrylamide gels copolymerized with 2 mg/ml gelatin from porcine skin (Sigma Aldrich) while MMP-1 was separated under the same conditions on 8% SDS-polyacrylamide gels copolymerized with 2 mg/ml casein (Sigma Aldrich). […] In case of MMP-13 p-aminophenylmercuric acetate (APMA) was used for enzyme activation at 37° C. for 30 min. After electrophoresis, gels were washed in 2.5% Triton-X 100 with agitation and then incubated for 20 hrs at 37° C. in enzyme incubation buffer (50 mM Tris-HCl, pH 7.5, containing 5 mM CaCl2, 200 mM NaCl) with or without MMP inhibitor. Zymographic gels were stained in Coomassie Brilliant Blue R-250 and de-stained. Gelatin and casein zymograms were scanned. MMP activity is detected as a white zone on a blue background and the clear bands in the gel can be quantified by densitometry. The obtained density values were measured and % inhibition values calculated (Kupai et al., 2010). The table below summarizes the prescreen inhibition values determined for different MMP inhibitors on MMP1, -2, -9, -13.

[4] = biological target: T1, MMP1; experiment: In vitro zymography assay (casein), MMP-1; type: biochemical; conditions: % ± SD
Protocol: as §1
Target sequence in this assay (P03956 100-469): as the sequence (P03956 100-469, species assumed) above

[5] = test system: neonatal rat cardiac myocytes; experiment: Cytoprotective effect in cardiac myocytes subjected to hypoxia and reoxygenation; type: cell-based
Method in brief: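 Day-3 neonatal rat cardiomyocytes subjected to 4 h simulated ischemia (95% N2/5% CO2, hypoxic solution, 37 °C) or normoxia, then reoxygenation. MMP inhibitors at EC5, EC10, EC20 and EC50 (DMSO vehicle; ilomastat 0.5 µM control) present throughout; viability by calcein-AM relative to digitonin/propidium iodide total cell count.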

[6] = biological target: MMP-2 (Rattus norvegicus (Rat), UniProt P33436); experiment: In vitro zymography assay (gelatin), MMP-2; type: biochemical
MMP-2, sequence (P33436 110-662): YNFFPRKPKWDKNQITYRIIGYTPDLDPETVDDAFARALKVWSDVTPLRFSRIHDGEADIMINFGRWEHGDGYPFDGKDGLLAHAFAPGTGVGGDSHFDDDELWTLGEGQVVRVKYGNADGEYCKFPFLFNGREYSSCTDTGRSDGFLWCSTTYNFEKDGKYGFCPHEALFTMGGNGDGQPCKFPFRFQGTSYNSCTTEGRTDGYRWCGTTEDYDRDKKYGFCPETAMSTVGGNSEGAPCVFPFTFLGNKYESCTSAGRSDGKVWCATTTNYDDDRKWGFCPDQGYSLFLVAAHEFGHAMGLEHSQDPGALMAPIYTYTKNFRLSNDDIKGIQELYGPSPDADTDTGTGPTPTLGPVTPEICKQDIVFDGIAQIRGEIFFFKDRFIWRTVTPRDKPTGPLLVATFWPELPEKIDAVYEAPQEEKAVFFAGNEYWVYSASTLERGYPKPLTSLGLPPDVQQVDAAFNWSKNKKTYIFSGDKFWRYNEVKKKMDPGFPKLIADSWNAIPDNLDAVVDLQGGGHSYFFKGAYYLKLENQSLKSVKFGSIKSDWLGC
Protocol: as §1

[7] = Cytotoxicity, alamarBlue viability, HCT116; type: cell-based; conditions: human, HCT116 colon tumor cells, 48 hours incubation, read-out: HCT116 LC50
Method in brief: (§2)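 Cells exposed to compound dilutions for 48 hours, then alamarBlue added for 4 hours; fluorescence read at ex 540/em 590 nm. IC50 from six concentrations run in duplicate.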

[8] = Cytotoxicity, alamarBlue viability, MRC-5; type: cell-based; conditions: human, MRC-5 fibroblast cells, 48 hours incubation, read-out: MRC-5 LC50
Method in brief: as §2

[9] = biological target: MMP9 (Homo sapiens, UniProt P14780); experiment: MMP activity assay (fluorogenic substrate), MMP9 catalytic domain; type: biochemical; conditions: Table 2
[10] = read-out: % inhibition MMP-1 (52 kDa)
[11] = read-out: % inhibition MMP-1 (55 kDa)

Structure (SMILES): O=C(O)c1csc(CN(Cc2ccc(F)cc2)Cc2ccc(OCc3cccnc3)cc2)n1 [Compound 1, 2-({[(4-Fluorophenyl)methyl]({[4-(pyridin-3-ylmethoxy)phenyl]methyl})amino}methyl)-1,3-thiazole-4-carboxylic acid]
- IC50 ([1]; Table 2, read-out: MM1 IC50): 51 µM
- IC50 ([1]; read-out: IC50 on MMP1): 46 µM
- IC50 ([2]; Table 2, read-out: MMP2 IC50): 5.7 µM
- IC50 ([2]; read-out: IC50 on MMP2): 5.7 µM
- % inhibition MMP-9 (92 kDa) ([3]; 1 μM): No inhibition
- % inhibition MMP-9 (92 kDa) ([3]; 100 μM): No inhibition
- inhibition at 1 µM [4, 10]: 25.9 ± 9.51%
- inhibition at 1 µM [4, 11]: 29.2 ± 38.7%
- inhibition at 100 µM [4, 10]: 58 ± 12.6%
- inhibition at 100 µM [4, 11]: 95.3 ± 8.17%
- Cytoprotective effect, % cell survival as compared to vehicle DMSO ([5]; normoxia, EC5 concentration 2.6 microM): 120 ± 2 %
- Cytoprotective effect, % cell survival as compared to vehicle DMSO ([5]; normoxia, EC10 concentration 6.3 microM): 99 ± 2%
- Cytoprotective effect, % cell survival as compared to vehicle DMSO ([5]; normoxia, EC20 concentration 10.4 microM): 94 ± 2%
- Cytoprotective effect, % cell survival as compared to vehicle DMSO ([5]; normoxia, EC50 concentration 17.7 microM): 86 ± 2 %
- Cytoprotective effect, % cell survival as compared to vehicle DMSO ([5]; simulated ischemia, EC5 concentration 2.6 microM): 125 ± 6 %
- Cytoprotective effect, % cell survival as compared to vehicle DMSO ([5]; simulated ischemia, EC10 concentration 6.3 microM): 109 ± 2%
- Cytoprotective effect, % cell survival as compared to vehicle DMSO ([5]; simulated ischemia, EC20 concentration 10.4 microM): 106 ± 2%
- Cytoprotective effect, % cell survival as compared to vehicle DMSO ([5]; simulated ischemia, EC50 concentration 17.7 microM): 97 ± 2%
- inhibition at 1 µM ([6]; 1 μM, % ± SD, read-out: % inhibition MMP-2 (72 kDa)): 100%
- inhibition at 100 µM ([6]; 100 μM, % ± SD, read-out: % inhibition MMP-2 (72 kDa)): 100%
- selectivity in the inhibition of different MMP isoenzymes ([6]; summary in words, MMP1, MMP2, MMP9, MMP13): highly selective for MMP2
- IC50 ([6]; zymography, Table 8, read-out: IC50 on MMP-2): 11.2 µM
- CC50 at 48 h [7]: 11 µM
- CC50 at 48 h [8]: 25 µM
- IC50 [9]: 37 µM
